Results taken from US10208034B2, “Quinoline derivative” (ONO PHARMACEUTICAL CO., LTD., priority 2014, dated 2019).

Biological target: T1, Ba/F3 Axl (Homo sapiens, UniProt P30530)
T1 sequence (P30530 1-894): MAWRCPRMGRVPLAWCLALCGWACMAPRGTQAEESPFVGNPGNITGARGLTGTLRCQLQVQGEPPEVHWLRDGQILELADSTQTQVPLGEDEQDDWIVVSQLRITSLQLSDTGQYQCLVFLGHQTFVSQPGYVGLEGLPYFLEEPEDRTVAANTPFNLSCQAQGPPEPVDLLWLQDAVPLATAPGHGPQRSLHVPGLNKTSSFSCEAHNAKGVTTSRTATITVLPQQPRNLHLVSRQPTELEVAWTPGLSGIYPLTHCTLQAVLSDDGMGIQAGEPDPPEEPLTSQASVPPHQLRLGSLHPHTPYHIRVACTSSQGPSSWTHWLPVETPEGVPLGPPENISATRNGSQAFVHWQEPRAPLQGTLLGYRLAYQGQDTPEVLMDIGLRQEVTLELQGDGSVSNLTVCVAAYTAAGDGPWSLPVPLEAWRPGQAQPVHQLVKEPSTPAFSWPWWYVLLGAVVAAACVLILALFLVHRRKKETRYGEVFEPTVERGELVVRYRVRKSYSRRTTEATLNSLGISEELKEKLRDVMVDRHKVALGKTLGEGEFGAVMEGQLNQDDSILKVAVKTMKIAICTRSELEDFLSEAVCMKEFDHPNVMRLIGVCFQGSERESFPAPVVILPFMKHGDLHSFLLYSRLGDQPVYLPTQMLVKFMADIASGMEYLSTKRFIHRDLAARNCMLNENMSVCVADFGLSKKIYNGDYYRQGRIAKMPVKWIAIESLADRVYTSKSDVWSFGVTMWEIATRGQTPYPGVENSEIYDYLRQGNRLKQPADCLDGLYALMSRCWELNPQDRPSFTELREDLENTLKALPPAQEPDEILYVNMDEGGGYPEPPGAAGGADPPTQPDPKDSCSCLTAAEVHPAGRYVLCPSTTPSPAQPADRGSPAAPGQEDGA
Assay: Proliferation suppression rate using mouse pro-B cell line (Ba/F3 Axl) stably expressing Axl (CellTiter-Glo)
Assay type: cell-based
Details: Ba/F3 Axl cells, 48 hours, read-out: IC50 value of proliferation suppression, Ba/F3 Axl
Protocol: A 0.1 mmol/L DMSO solution of the test compound was dispensed into a 96-well plate, and a 3-fold dilution series was prepared using DMSO. DMSO solutions of test compounds, having various concentrations, were further 500-fold diluted with a RPMI1640 medium (containing 10% HI-FBS, 1% penicillin) and a diluted solution of the test compound having […] with respect to the final concentration was prepared. In each well of the 96-well plate (BD Biosciences) for measurement, 50 μL of a RPMI medium was added to the Blank group, 50 μL of a RPMI medium containing 0.2% DMSO was added to the medium group, and 50 μL of the diluted solution of the test compound was added to the test compound group, respectively. Ba/F3 Axl was diluted with a medium to have a density of 2×10^5 cells/mL to prepare a cell suspension. In each well of the 96-well plate for measurement, 50 μL each of the RPMI medium was added to the Blank group, and 50 μL each of the cell suspension to the medium group and the test compound group, respectively, and the groups were stood still at 37° C. at 5% CO2 for 48 hours. After standing still, Relative Light Unit (RLU) was measured by using CELLTITER-GLO (registered trademark) LUMINESCENT CELL VIABILITY ASSAY (Promega). The measurement was carried out according to the attached instruction. To each well, 100 μL each of light-emitting solution was added. The plate was stirred at room temperature for 3 min and then stool still at room temperature with light shielded for 10 min, and RLU was measured by using Microplate Reader (SpectraMax M5e, Molecular Devices). The average values of RLU of the Blank group and the medium group were respectively calculated, and the proliferation suppression rate of the test compound group was calculated. Proliferation suppression rate (%)={1−(RLU of test compound group−A)/(B−A)}×100 [Math. 2] A: average value of RLU of Blank group B: average value of RLU of medium group
A value of 50% inhibition rate (IC50 value) of the test compound was calculated from the inhibition curve based on the inhibition rate in each concentration of the test compound.

SMILES	GI50 [nM]
COc1cc2nccc(Oc3ccc(NC(=O)c4cc5c(n(-c6ccccc6)c4=O)CCCNC5=O)nc3)c2cc1OC [Example 66, N-{5-[(6,7-dimethoxy-4-quinolinyl)oxy]-2-pyridinyl}-2,5-dioxo-1-phenyl-2,5,6,7,8,9-hexahydro-1H-pyrido[3,2-c]azepine-3-carboxamide]	5.7
COc1cc2nccc(Oc3ccc(NC(=O)c4c5c(cn(-c6ccccc6)c4=O)C(=O)CCC5)nc3)c2cc1OC [Example 42, N-{5-[(6,7-dimethoxy-4-quinolinyl)oxy]-2-pyridinyl}-3,8-dioxo-2-phenyl-2,3,5,6,7,8-hexahydro-4-isoquinolinecarboxamide]	4.2
COc1cc2nccc(Oc3ccc(NC(=O)c4cc5ccncc5n(-c5ccccc5)c4=O)nc3)c2cc1OC [Example 28, N-{5-[(6,7-dimethoxy-4-quinolinyl)oxy]-2-pyridinyl}-2-oxo-1-phenyl-1,2-dihydro-1,7-naphthyridine-3-carboxamide]	0.99
COc1cc2nccc(Oc3ccc(NC(=O)c4cc(C(C)=O)cn(-c5ccccc5)c4=O)nc3)c2cc1OC [Example 21, 5-acetyl-N-{5-[(6,7-dimethoxy-4-quinolinyl)oxy]-2-pyridinyl}-2-oxo-1-phenyl-1,2-dihydro-3-pyridinecarboxamide]	0.96
